Measured values: patent US9187467B2, “2-phenyl benzothiazole linked imidazole compounds as potential anticancer agents and process for the preparation thereof” (Council of Scientific and Industrial Research, priority 2012, dated 2015)

What was measured:
[1] = test system: HOP-62; experiment: SRB anticancer assay, non-small lung; type: cell-based, human; conditions: for GI50: Homo sapiens, HOP-62, 48 h; for Log10GI50: HOP-62, present compounds
[2] = test system: HCC-2998; experiment: SRB anticancer assay, colon; type: cell-based, human; conditions: Homo sapiens; HCC-2998, 48 h
[3] = test system: CAKI-1; experiment: SRB anticancer assay, renal; type: cell-based, human; parameters: Log10GI50: unit not given here; conditions: for GI50: Homo sapiens, CAKI-1, 48 h; for Log10GI50: CAKI-1, present compounds
[4] = test system: MDA-MB-435; experiment: SRB anticancer assay, melanoma; type: cell-based, human; parameters: Log10GI50: unit not given here; conditions: for GI50: Homo sapiens, MDA-MB-435, 48 h; for Log10GI50: MDA-MB-435, present compounds
[5] = test system: sixty human cancer cell lines; experiment: SRB anticancer assay, all cell lines; type: cell-based; conditions: all the cell lines; exposure at least 48 h
[6] = test system: A549/ATCC; experiment: SRB anticancer assay, non-small lung; type: cell-based, human; parameters: Log10GI50: unit not given here; conditions: for GI50: Homo sapiens, 48 h; for Log10GI50: present compounds
[7] = test system: EKVX; experiment: SRB anticancer assay, non-small lung; type: cell-based, human; parameters: Log10GI50: unit not given here; conditions: for GI50: Homo sapiens, 48 h; for Log10GI50: present compounds
[8] = test system: HOP-92; experiment: SRB anticancer assay, non-small lung; type: cell-based, human; parameters: Log10GI50: unit not given here; conditions: for Log10GI50: HOP-92, present compounds; for GI50: Homo sapiens, HOP-92, 48 h
[9] = test system: MDA-MB-468; experiment: SRB anticancer assay, breast; type: cell-based, human; parameters: unit not given here; conditions: present compounds
[10] = test system: M14; experiment: SRB anticancer assay, melanoma; type: cell-based, human; parameters: Log10GI50: unit not given here; conditions: for GI50: Homo sapiens, M14, 48 h; for Log10GI50: M14, present compounds
[11] = test system: caspase-9; experiment: Western blot, apoptosis proteins in MCF-7 cells; type: cell-based; conditions: 2 μM, 24h
Description: (§1) FIG. 3 represents effect of compound 7d and 7h on p21 and caspase-9. MCF-7 cells were treated with 2 μM concentration of compounds 7d and 7h for 24h. The cell lysates were collected and probed with anti-bodies against p21 and caspase-9. beta-actin was used as loading control. Con: Control (untreated).
(§2) Activation of tumor suppressor gene p21 was the important regulator of apoptotic pathway caused by various stimuli. In many instances the apoptotic cell death is mediated by caspases, thus the possible involvement of p21 and caspase protein and its role in apoptosis has been investigated. MCF-7 cells were treated with 7d, 7h (the effective compounds of cell cycle arrest) 21a, 21d and CA-4 at 2 μM concentration.

[12] = test system: p21; experiment: Western blot, apoptosis proteins in MCF-7 cells; type: cell-based; conditions: 2 μM, 24h
Description: as §1, §2

[13] = test system: CCRF-CEM; experiment: SRB anticancer assay, leukemia; type: cell-based, human; parameters: Log10GI50: unit not given here; conditions: for GI50: Homo sapiens, 48 h; for Log10GI50: present compounds
[14] = test system: MOLT-4; experiment: SRB anticancer assay, leukemia; type: cell-based, human; parameters: Log10GI50: unit not given here; conditions: for GI50: Homo sapiens, MOLT-4, 48 h; for Log10GI50: MOLT, present compounds
[15] = test system: RPMI-8226; experiment: SRB anticancer assay, leukemia; type: cell-based; conditions: Homo sapiens, RPMI-8226, 48 h
[16] = test system: COLO 205; experiment: SRB anticancer assay, colon; type: cell-based, human; conditions: Homo sapiens, COLO 205, 48 h
[17] = test system: HCT-15; experiment: SRB anticancer assay, colon; type: cell-based, human; conditions: Homo sapiens, HCT-15, 48 h
[18] = test system: SW-620; experiment: SRB anticancer assay, colon; type: cell-based, human; parameters: Log10GI50: unit not given here; conditions: for GI50: Homo sapiens, SW-620, 48 h; for Log10GI50: SW-620, present compounds
[19] = test system: microtubule network of MCF-7 cells; experiment: Effect on microtubule network; type: cell-based; conditions: 2 μM
Description: FIG. 2 represents effect of compound 7d, the effective compound on the microtubule network of MCF-7 cells untreated cells (Con), nocodazole (Noc) and 7d at 2 μM concentration. Microtubules and unassembled tubulin are shown in green and DNA was stained with nuclear dye DAPI (4,6-diamidino-2-phenylindole) is shown in blue colour.
Inhibition of tubulin is associated with G2/M cell cycle arrest by interrupting chromosome segregation and affecting mitotic spindle formation. […] It was considered of interest to understand the mechanism of anti-cancer activity of compound 7d with regard to interaction with microtubule system. MCF-7 breast cancer cells were treated with Nocodazole (Noc), 7d compounds at 2 μM concentration.

| Compound | GI50 [1] | GI50 [2] | GI50 [3] | GI50 [4] | mean graph midpoint values (MG_MID) of log10LC50, range [5] | GI50 [6] | Log10GI50 [6] | GI50 [7] | Log10GI50 [7] | Log10GI50 [8] | GI50 [8] | Log10GI50 [3] | Log10GI50 [9] | GI50 [10] | GI50 [13] | GI50 [14] | GI50 [15] | GI50 [16] | GI50 [17] | GI50 [18] | further results |
| --- | --- | --- | --- | --- | --- | --- | --- | --- | --- | --- | --- | --- | --- | --- | --- | --- | --- | --- | --- | --- | --- |
| COc1cc(OC)cc(-c2cncn2-c2ccc(-c3nc4cc(OC)cc(OC)c4s3)cc2)c1 [Compound 6d, 2-(4-(5-(3,5-Dimethoxyphenyl)-1H-imidazol-1-yl)phenyl)-5,7-dimethoxybenzo[d]thiazole] | 6.65 µM | > 100 µM | 2.13 µM | 1.53 µM | −4.00 | – | – | – | – | – | – | – | – | – | – | – | – | – | – | – | – |
| COc1cc2nc(-c3ccc(-n4cncc4-c4ccc(N)cc4)cc3)sc2c(OC)c1OC [Compound 7h, 4-(1-(4-(5,6,7-Trimethoxybenzo[d]thiazol-2-yl)phenyl)-1H-imidazol-5-yl)benzenamine] | – | – | 1.41 µM | – | – | 3.14 µM | −5.50 | 2.49 µM | −5.60 | −6.35 | 0.446 µM | −5.85 | −5.74 | 2.1 µM | – | – | – | – | – | – | Log10GI50 [10]: −5.68; caspase-9 protein (Western blot) [11]: increase; p21 protein (Western blot) [12]: increase |
| COc1cc(-c2cncn2-c2ccc(-c3nc4ccc(F)cc4s3)cc2)ccc1F [Compound 4c, 6-Fluoro-2-(4-(5-(4-fluoro-3-methoxyphenyl)-1H-imidazol-1-yl)phenyl)benzo[d]thiazole] | 40.7 µM | > 100 µM | > 100 µM | 17.1 µM | – | 12.3 µM | −4.91 | – | – | −5.26 | 5.47 µM | – | −4.96 | 33.4 µM | 6.92 µM | 3.41 µM | 4.11 µM | 56.8 µM | 82.3 µM | 7.81 µM | Log10GI50 [13]: −5.16; Log10GI50 [14]: −5.47; Log10GI50 [1]: −4.39 log10 M; Log10GI50 [18]: −5.11; Log10GI50 [10]: −4.48; Log10GI50 [4]: −4.77 |
| COc1cc(OC)c2sc(-c3ccc(-n4cncc4-c4cc(OC)c(OC)c(OC)c4)cc3)nc2c1 [Compound 6f, 5,7-Dimethoxy-2-(4-(5-(3,4,5-trimethoxyphenyl)-1H-imidazol-1-yl)phenyl)benzo[d]thiazole] | 75.9 µM | > 100 µM | – | 3.41 µM | −4.00 | 6.16 µM | – | 5.09 µM | – | – | – | – | – | 7.91 µM | 3.95 µM | 4.24 µM | 5.39 µM | 4.51 µM | 5.48 µM | 5.96 µM | mean graph midpoint values (MG_MID) of log10TGI, range [5]: −4.00 |
| COc1ccc(-c2cncn2-c2ccc(-c3nc4cc(OC)c(OC)c(OC)c4s3)cc2)cc1N [Compound 7j, 2-Methoxy-5-(1-(4-(5,6,7-trimethoxybenzo[d]thiazol-2-yl)phenyl)-1H-imidazol-5-yl)benzeneamine] | – | – | 4.82 µM | 3.13 µM | −4.00 | 5.77 µM | −5.24 | 7.54 µM | −5.12 | – | – | −5.32 | −5.07 | 5.91 µM | 3.41 µM | 4 µM | – | 2.94 µM | 4.02 µM | 6.21 µM | Log10GI50 [13]: −5.47; Log10GI50 [14]: −5.40; Log10GI50 [18]: −5.21; Log10GI50 [10]: −5.23; Log10GI50 [4]: −5.50 |
| COc1cc(OC)c2sc(-c3ccc(-n4cncc4-c4ccc(OC)c(OC)c4)cc3)nc2c1 [Compound 6e, 2-(4-(5-(3,4-Dimethoxyphenyl)-1H-imidazol-1-yl)phenyl)-5,7-dimethoxybenzo[d]thiazole] | 35.5 µM | > 100 µM | – | – | −4.00 | 41.8 µM | – | – | – | – | – | – | – | > 100 µM | > 100 µM | – | > 100 µM | – | > 100 µM | > 100 µM | – |
| COc1cc(OC)cc(-c2cncn2-c2ccc(-c3nc4cc(OC)c(OC)c(OC)c4s3)cc2)c1 [Compound 7d, 2-(4-(5-(3,5-Dimethoxyphenyl)-1H-imidazol-1-yl)phenyl)-5,6,7-trimethoxybenzo[d]thiazole] | 26.4 µM | > 100 µM | 3.79 µM | 6.07 µM | – | 5.59 µM | −5.25 | 1.87 µM | −5.73 | >−4.0 | > 100 µM | −5.42 | −4.97 | – | – | 4.11 µM | 2.9 µM | 3.85 µM | 5.72 µM | 13.7 µM | Log10GI50 [14]: −5.39; Log10GI50 [1]: −4.58 log10 M; Log10GI50 [18]: −4.86; Log10GI50 [4]: −5.22; microtubulin organization [19]: disrupted microtubulin organization; caspase-9 protein (Western blot) [11]: increase; p21 protein (Western blot) [12]: increase |
